Legend:
BA.2 pseudovirus = settings: read-out: Inhibitory activity, IC50 (nM) BA.2, Caco2 target cells
BA.2.75 pseudovirus = settings: read-out: Inhibitory activity, IC50 (nM) BA.2.75, Caco2 target cells
BA.2.86 pseudovirus = settings: read-out: Inhibitory activity, IC50 (nM) BA.2.86, Caco2 target cells
XBB.1.5 pseudovirus = settings: read-out: Inhibitory activity, IC50 (nM) XBB.1.5, Caco2 target cells
EG.5 pseudovirus = settings: read-out: Inhibitory activity, IC50 (nM) EG.5, Caco2 target cells

In the case of `CC[C@H](C)[C@H](NC(=O)[C@H](C)NC(=O)[C@H](CCC(=O)O)NC(=O)[C@H](CCC(=O)O)NC(=O)[C@H](CC(C)C)NC(=O)[C@H](CCCCN)NC(=O)[C@H](CCCCN)NC(=O)[C@H](CCSC)NC(=O)[C@H](CCC(=O)O)NC(=O)[C@H](Cc1ccc(O)cc1)NC(=O)[C@H](CCC(=O)O)NC(=O)[C@H](CC(C)C)NC(=O)[C@H](CC(=O)O)NC(=O)[C@H](CC(C)C)NC(=O)[C@H](Cc1ccccc1)NC(=O)[C@@H](NC(=O)[C@@H](NC(=O)[C@H](CC(N)=O)NC(=O)[C@@H](NC(=O)[C@H](CCC(N)=O)NC(=O)[C@H](CC(=O)O)NC(=O)[C@H](CC(C)C)NC(=O)[C@H](CO)NC(C)=O)[C@@H](C)CC)C(C)C)[C@@H](C)O)C(=O)N[C@@H](CCCCN)C(=O)N[C@@H](CCCCN)C(=O)N[C@@H](CC(C)C)C(=O)N[C@@H](CCC(=O)O)C(=O)N[C@@H](CCC(=O)O)C(=O)N[C@@H](CO)C(=O)N[C@@H](Cc1ccc(O)cc1)C(=O)N[C@H](C(=O)N[C@@H](CC(=O)O)C(=O)N[C@@H](CC(C)C)C(=O)N[C@@H](CCCCN)C(=O)N[C@@H](CCC(=O)O)C(=O)N[C@@H](CC(C)C)C(N)=O)[C@@H](C)CC` [EK1], the IC50 (BA.2 pseudovirus) was 228 nM, the IC50 (BA.2.75 pseudovirus) was 438 nM and the IC50 (BA.2.86 pseudovirus) was 392 nM. It also gave an IC50 (XBB.1.5 pseudovirus) of 291 nM and an IC50 (EG.5 pseudovirus) of 401 nM.
